According to patent publication US7202269B2, “GlyT2 modulators” (Janssen Pharmaceutica N.V., priority 2003, dated 2007):

Target: T1, human glycine transporter-2 (GlyT2) (Homo sapiens, UniProt Q9Y345)
T1 construct: The entire coding region of the human GlyT2 cDNA was cloned into the mammalian expression vector pClNeo; expressed in transfected cells; host or cells: Cos-7 cells (African green monkey kidney, ATCC), stably transfected, G418-selected; vector pClNeo
T1 sequence (Q9Y345 1-797): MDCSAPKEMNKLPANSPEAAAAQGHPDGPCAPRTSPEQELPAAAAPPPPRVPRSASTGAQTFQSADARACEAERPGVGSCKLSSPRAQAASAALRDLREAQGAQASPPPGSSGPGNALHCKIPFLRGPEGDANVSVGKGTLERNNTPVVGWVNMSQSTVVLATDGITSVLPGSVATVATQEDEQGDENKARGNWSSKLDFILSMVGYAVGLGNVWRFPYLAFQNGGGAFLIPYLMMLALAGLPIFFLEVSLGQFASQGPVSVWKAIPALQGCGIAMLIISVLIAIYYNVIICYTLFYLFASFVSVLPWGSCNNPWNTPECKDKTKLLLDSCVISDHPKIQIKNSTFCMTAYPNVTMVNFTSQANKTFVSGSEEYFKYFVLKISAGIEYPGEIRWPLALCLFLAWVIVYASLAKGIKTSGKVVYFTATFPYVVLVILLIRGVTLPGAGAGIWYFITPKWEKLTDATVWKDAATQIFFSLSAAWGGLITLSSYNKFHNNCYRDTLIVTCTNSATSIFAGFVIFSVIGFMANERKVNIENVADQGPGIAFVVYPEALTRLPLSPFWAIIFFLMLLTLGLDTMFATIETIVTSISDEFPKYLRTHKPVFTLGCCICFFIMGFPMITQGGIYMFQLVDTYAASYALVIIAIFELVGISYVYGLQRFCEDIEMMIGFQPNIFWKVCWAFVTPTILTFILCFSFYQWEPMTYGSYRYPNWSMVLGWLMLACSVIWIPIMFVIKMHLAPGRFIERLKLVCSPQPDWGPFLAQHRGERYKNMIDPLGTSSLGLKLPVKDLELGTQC
Assay: Inhibition of [14C]-glycine uptake in COS-7 cells transfected with human GlyT2
Assay type: cell-based
Settings: 2 h at 37° C., Cos-7 cells stably transfected with human GlyT2
Description: GlyT2 antagonist activity of representative compounds of the invention was determined in accordance with the assay described in the Examples and by measuring the ability of compounds to inhibit the uptake of [^14C]-glycine in COS-7 cells transfected with the human glycine transporter-2 (GlyT2). The GlyT2 antagonist activities of these representative compounds are set forth hereinafter in Table 1.
Cos-7 cells (African green monkey, kidney) from American Type Culture Collection were grown in DMEM supplemented with 10% fetal bovine serum. The entire coding region of the human GlyT2 cDNA was cloned into the mammalian expression vector pClNeo, and then stably transfected into Cos-7 cells. Transfection was performed essentially as described by T. W. Lovenberg et al. (Mol. Pharmacol. 1999, 55:1101–1107): Briefly, cells were grown to 70–80% confluence, removed from the plate with trypsin, and pelleted in a clinical centrifuge. The pellet was resuspended in 400 μL complete medium and transferred to an electroporation cuvette with a 0.4 cm gap between the electrodes (Bio-Rad, 165–2088). One microgram of supercoiled GlyT2 cDNA was added to the cells, and the suspension was mixed. The voltage for the electroporation was set at 0.25 kV, and the capacitance was set at 960 μF. After electroporation, the cuvette contents were diluted to 10 mL with complete medium, and 0.5 mL, 1.0 mL, 2.0 mL and remainder (˜6.5 mL) portions were plated onto four 10-cm dishes. The cells were incubated 24 h before adding 600 μg/mL G418. Colonies that survived selection were isolated and tested for GlyT2 expression.
The day before the assay, the GlyT2 expressing cells were plated into 96-well scintillating microplates (Amersham, RPNQ 0160) at a density of approximately 20,000 cells per well. Cells were grown overnight at 37° C. in 5% CO2 and then washed once with 37° C. HEPES buffered saline (HBS: 150 mM NaCl, 20 mM HEPES, 1 mM CaCl2, 10 mM glucose, 5 mM KCl, 1 mM MgCl2; pH 7.4). Eighty microliters of 37° C. HBS was subsequently added to each well. Test solutions of GlyT2 inhibitors were prepared in HBS from DMSO stock solutions, and 5 μL of test solution was added to each test well. Total transport and non-specific background were determined by adding 5 μL HBS or 5 μL 2 M glycine, respectively, to the appropriate control wells. Plates were then left at rt for 5 min before the addition of 20 μL of 100 μM ^14C-glycine (NEN, NEC 048H) to each well for a final concentration of 20 μM. Plates were incubated for 2 h at 37° C. with 5% CO2. After 2 h the reaction mixtures were removed by aspiration, and the plates were washed once with ice-cold HBS. Plates were sealed with TopSeal (Packard, 6005185) and counted on a Packard TopCount® scintillation counter.

Compound: N#C/N=C(\Nc1ccc(-c2ccccc2)cc1)N[C@@H](Cc1ccccc1)C(=O)NCCCN1CCCC1 [Example 1, (S)-2-(N′-Biphenyl-4-yl-N″-cyano-guanidino)-3-phenyl-N-(3-pyrrolidin-1-yl-propyl)-propionamide]
- IC50 (Table 1, 20 μM): 11 nM

Compound: O=C(Nc1ccc(-c2ccccc2)cc1)N[C@H](CCCNCCN1CCCC1)Cc1ccccc1 [Example 2, 1-[(R)-1-Benzyl-4-(2-pyrrolidin-1-yl-ethylamino)-butyl]-3-biphenyl-4-yl-urea]
- IC50 (Table 2, 20 μM): 18 nM

Compound: CC(C)N(CCNC(=O)[C@H](Cc1ccccc1)NC(=O)Nc1ccc(Oc2ccc(Cl)cc2)cc1)C(C)C [Example 3, (S)-2-{3-[4-(4-Chloro-phenoxy)-phenyl]-ureido}-N-(2-diisopropylamino-ethyl)-3-phenyl-propionamide]
- IC50 (Table 2, 20 μM): 18 nM

Compound: Cc1ccc([C@@H](CC(=O)NCCN2CCCC2)NC(=O)Nc2ccc(-c3ccccc3)cc2)cc1 [Example 6, (R)-3-(3-Biphenyl-4-yl-ureido)-N-(2-pyrrolidin-1-yl-ethyl)-3-p-tolyl-propionamide]
- IC50 (Table 2, 20 μM): 27 nM

Compound: N#C/N=C(\Nc1ccc(-c2ccccc2)cc1)N[C@H](CC(=O)NCCN1CCCC1)c1ccccc1 [Example 8, (R)-3-(N′-Biphenyl-4-yl-N″-cyano-guanidino)-3-phenyl-N-(2-pyrrolidin-1-yl-ethyl)-propionamide]
- IC50 (Table 1, 20 μM): 31 nM

Compound: O=C(NCCN1CCCC1)[C@H](Cc1ccccc1)NC(=S)Nc1ccc(Oc2ccc(Cl)cc2)cc1 [Example 9, (S)-2-{3-[4-(4-Chloro-phenoxy)-phenyl]-thioureido}-3-phenyl-N-(2-pyrrolidin-1-yl-ethyl)-propionamide]
- IC50 (Table 3, 20 μM): 32 nM

Compound: O=C(/C=C/[C@H](Cc1ccccc1)NC(=O)Nc1ccc(Oc2ccc(F)cc2)cc1)NCCN1CCCC1 [Example 11, (E)-(S)-4-{3-[4-(4-Fluoro-phenoxy)-phenyl]-ureido}-5-phenyl-pent-2-enoic Acid (2-pyrrolidin-1-yl-ethyl)-amide]
- IC50 (Table 2, 20 μM): 39 nM

Compound: CCN(CC)CCNC(=O)/C=C/[C@H](Cc1ccccc1)NC(=O)Nc1ccc(-c2ccccc2)cc1 [Example 19, (E)-(S)-4-(3-Biphenyl-4-yl-ureido)-5-phenyl-pent-2-enoic Acid (2-diethylamino-ethyl)-amide]
- IC50 (Table 2, 20 μM): 48 nM

Compound: CC(C)NCCNC(=O)/C=C/[C@H](Cc1ccccc1)NC(=O)Nc1ccc(-c2ccccc2)cc1 [Example 21, (E)-(S)-4-(3-Biphenyl-4-yl-ureido)-5-phenyl-pent-2-enoic Acid (2-isopropylamino-ethyl)-amide]
- IC50 (Table 2, 20 μM): 52 nM

Compound: CC(C)NCCNC(=O)CC[C@H](Cc1ccccc1)NC(=O)Nc1ccc(-c2ccccc2)cc1 [Example 26, (R)-4-(3-Biphenyl-4-yl-ureido)-5-phenyl-pentanoic Acid (2-isopropylamino-ethyl)-amide]
- IC50 (Table 2, 20 μM): 57 nM

Compound: O=C(CNc1ccc(Oc2ccc(Cl)cc2)cc1)N[C@@H](Cc1ccccc1)C(=O)NCCN1CCCC1 [Example 27, (S)-2-{2-[4-(4-Chloro-phenoxy)-phenylamino]-acetylamino}-3-phenyl-N-(2-pyrrolidin-1-yl-ethyl)-propionamide]
- IC50 (Table 2, 20 μM): 58 nM

Compound: O=C(C[C@H](Cc1ccccc1)NC(=O)CNc1ccc(Oc2ccc(Cl)cc2)cc1)NCCN1CCCC1 [Example 28, (S)-3-{2-[4-(4-Chloro-phenoxy)-phenylamino]-acetylamino}-4-phenyl-N-(2-pyrrolidin-1-yl-ethyl)-butyramide]
- IC50 (Table 2, 20 μM): 95 nM

Compound: O=C(CC[C@H](Cc1ccccc1)NC(=S)Nc1ccc(-c2ccccc2)cc1)NCCN1CCCC1 [Example 31, (R)-4-(3-Biphenyl-4-yl-thioureido)-5-phenyl-pentanoic Acid (2-pyrrolidin-1-yl-ethyl)-amide]
- IC50 (Table 3, 20 μM): 89 nM

Compound: N#C/N=C(\Nc1ccc(-c2ccccc2)cc1)N[C@H](CCC(=O)NCCN1CCCC1)Cc1ccccc1 [Example 42, (R)-4-(N′-Biphenyl-4-yl-N″-cyano-guanidino)-5-phenyl-pentanoic Acid (2-pyrrolidin-1-yl-ethyl)-amide]
- IC50 (Table 1, 20 μM): 93 nM

Compound: N#C/N=C(\Nc1ccc(-c2ccccc2)cc1)N[C@H](CC(=O)NCCN1CCCC1)Cc1ccccc1 [Example 53, (S)-3-(N′-Biphenyl-4-yl-N″-cyano-guanidino)-4-phenyl-N-(2-pyrrolidin-1-yl-ethyl)-butyramide]
- IC50 (Table 1, 20 μM): 103 nM

Compound: CN(C)CCN(C)C(=O)C(Cc1ccccc1)NC(=O)Nc1ccc(-c2ccccc2)cc1 (stereo not drawn) [Example 61, 2-(3-Biphenyl-4-yl-ureido)-N-(2-dimethylamino-ethyl)-N-methyl-3-phenyl-propionamide]
- IC50 (Table 2, 20 μM): 3500 nM

Compound: CC(C)N(CCNC(=O)[C@H](Cc1ccccc1)NC(=O)Nc1ccc(-c2cccs2)cc1)C(C)C [Example 65, (S)-N-(2-Diisopropylamino-ethyl)-3-phenyl-2-[3-(4-thiophen-2-yl-phenyl)-ureido]-propionamide]
- IC50 (Table 2, 20 μM): 405 nM

Compound: O=C(Nc1ccc(Oc2ccccc2)cc1)N[C@@H](Cc1cscn1)C(=O)NCCN1CCCC1 [Example 74, (S)-2-[3-(4-Phenoxy-phenyl)-ureido]-N-(2-pyrrolidin-1-yl-ethyl)-3-thiazol-4-yl-propionamide]
- IC50 (Table 2, 20 μM): 1060 nM

Compound: O=C(Nc1ccc(-c2ccccc2)cc1)NC1(C(=O)NCCN2CCCC2)Cc2ccccc2C1 [Example 84, 2-(3-Biphenyl-4-yl-ureido)-indan-2-carboxylic Acid (2-pyrrolidin-1-yl-ethyl)-amide]
- IC50 (Table 2, 20 μM): 10000 nM

Compound: O=C(Nc1ccc(S(=O)(=O)c2ccc(Cl)cc2)cc1)N[C@@H](Cc1ccccc1)C(=O)NCCN1CCCC1 [Example 85, (S)-2-{3-[4-(4-Chloro-benzenesulfonyl)-phenyl]-ureido}-3-phenyl-N-(2-pyrrolidin-1-yl-ethyl)-propionamide]
- IC50 (Table 2, 20 μM): 269 nM

Compound: CCCNCCNC(=O)CC[C@H](Cc1ccccc1)NC(=O)Nc1ccc(-c2ccccc2)cc1 [Example 87, (R)-4-(3-Biphenyl-4-yl-ureido)-5-phenyl-pentanoic Acid (2-propylamino-ethyl)-amide]
- IC50 (Table 2, 20 μM): 76 nM

Compound: NCCNC(=O)[C@H](Cc1ccccc1)NC(=O)Nc1ccc(Oc2ccccc2)cc1 [Example 98, (S)-N-(2-Amino-ethyl)-2-[3-(4-phenoxy-phenyl)-ureido]-3-phenyl-propionamide]
- IC50 (Table 2, 20 μM): 398 nM

Compound: O=C(/C=C/[C@H](Cc1ccccc1)NC(=O)Nc1ccc(-c2ccccc2)cc1)NCCN1CCCC1 [Example 101, (E)-(S)-4-(3-Biphenyl-4-yl-ureido)-5-phenyl-pent-2-enoic Acid (2-pyrrolidin-1-yl-ethyl)-amide]
- IC50 (Table 2, 20 μM): 112 nM

Compound: NCCNC(=O)CC[C@H](Cc1ccccc1)NC(=O)Nc1ccc(Oc2ccccc2)cc1 [Example 111, (R)-4-[3-(4-Phenoxy-phenyl)-ureido]-5-phenyl-pentanoic Acid (2-amino-ethyl)-amide]
- IC50 (Table 2, 20 μM): 500 nM
